Data published in ChEMBL document CHEMBL1201862, “PubChem BioAssay data set” (2004).
Blank lines part the entries; values can stand above or below the molecule they belong to. Activity calls are given as the source filed them.

Legend:
[1] = inhibitors of intracellular T. cruzi replication, confirmation, NIH3T3 host cells, beta-gal luminescence (AID 2044); assay type: functional, cell-based;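 also: intracellular parasites grown in NIH/3T3 mouse fibroblasts as host cells; luminescent beta-galactosidase reporter signal from transgenic T. cruzi replicating inside host cells; inhibitors lower the luminescence signal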
[2] = cytotoxicity toward NIH3T3 fibroblasts, dose response, counter-screen, cell-based, ATP luminescence, mouse fibroblasts (AID 2010); assay type: functional;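 also: cells exposed to compound for about 90 hours before reading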
[3] = molecular target: T1, Ubiquitin-conjugating enzyme E2 N (Homo sapiens, UniProt P61088); assay type: functional;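 also: Dose-response confirmation in a TR-FRET assay detecting UBC13-driven polyubiquitin chain formation, inhibition measured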
T1 sequence (P61088 whole entry): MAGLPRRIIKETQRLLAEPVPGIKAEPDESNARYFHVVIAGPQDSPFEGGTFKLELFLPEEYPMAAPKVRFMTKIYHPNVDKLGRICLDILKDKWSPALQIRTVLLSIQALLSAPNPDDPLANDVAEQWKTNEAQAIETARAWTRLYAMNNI

[4] = molecular target: T2, DNA repair protein RAD52 homolog (Homo sapiens, UniProt P43351); assay type: functional, biochemical
T2 sequence (P43351 whole entry): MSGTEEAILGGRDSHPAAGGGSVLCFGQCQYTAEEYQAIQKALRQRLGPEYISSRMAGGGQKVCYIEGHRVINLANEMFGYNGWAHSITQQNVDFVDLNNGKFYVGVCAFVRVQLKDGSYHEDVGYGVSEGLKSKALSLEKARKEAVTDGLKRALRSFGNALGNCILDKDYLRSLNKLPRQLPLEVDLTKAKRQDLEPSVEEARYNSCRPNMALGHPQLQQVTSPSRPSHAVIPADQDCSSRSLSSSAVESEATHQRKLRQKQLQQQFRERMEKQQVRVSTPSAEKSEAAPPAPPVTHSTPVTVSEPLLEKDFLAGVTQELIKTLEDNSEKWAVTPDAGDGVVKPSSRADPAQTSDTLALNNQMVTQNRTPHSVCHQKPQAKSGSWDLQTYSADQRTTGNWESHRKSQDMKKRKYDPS

[5] = molecular target: T3, Polyadenylate-binding protein 1 (Homo sapiens, UniProt P11940); experiment: PABP1 MLLE–PAM2 interaction inhibitors, dose response, miRNA deadenylation inhibitor project, biochemical, fluorescence polarization, Cy5-PAM2 peptide, secondary (AID 602260); assay type: functional; settings: read-out: IC50_Mean
T3 sequence (P11940 whole entry): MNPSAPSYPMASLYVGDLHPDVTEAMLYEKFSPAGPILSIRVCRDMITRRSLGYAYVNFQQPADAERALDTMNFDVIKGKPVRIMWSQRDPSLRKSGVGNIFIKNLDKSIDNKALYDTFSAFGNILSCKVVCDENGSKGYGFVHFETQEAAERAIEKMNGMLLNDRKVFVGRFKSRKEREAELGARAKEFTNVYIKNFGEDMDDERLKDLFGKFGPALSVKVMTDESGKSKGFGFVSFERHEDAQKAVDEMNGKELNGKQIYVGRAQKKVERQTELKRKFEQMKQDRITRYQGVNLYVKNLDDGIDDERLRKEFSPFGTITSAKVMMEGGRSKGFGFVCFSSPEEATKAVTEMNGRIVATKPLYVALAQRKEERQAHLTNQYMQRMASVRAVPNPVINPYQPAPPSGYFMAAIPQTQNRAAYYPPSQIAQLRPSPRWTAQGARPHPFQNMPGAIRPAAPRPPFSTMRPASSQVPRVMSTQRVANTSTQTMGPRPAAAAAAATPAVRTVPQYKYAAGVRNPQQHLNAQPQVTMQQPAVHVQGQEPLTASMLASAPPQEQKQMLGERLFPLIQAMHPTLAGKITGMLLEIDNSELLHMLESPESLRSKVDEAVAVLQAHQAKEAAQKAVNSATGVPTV

[6] = molecular target: T3, Polyadenylate-binding protein 1; experiment: PABP1 MLLE–PAM2 binding inhibitor potency, dose response, biochemical, fluorescence polarization, FITC-PAM2 peptide (AID 602259); assay type: functional; settings: read-out: IC50_Mean
[7] = molecular target: T4, High affinity choline transporter 1 (Homo sapiens, UniProt Q9GZV3); experiment: CHT inhibitors, dose response, cell-based, 5-point CRC, membrane potential dye (AID 504840); assay type: functional
T4 sequence (Q9GZV3 whole entry): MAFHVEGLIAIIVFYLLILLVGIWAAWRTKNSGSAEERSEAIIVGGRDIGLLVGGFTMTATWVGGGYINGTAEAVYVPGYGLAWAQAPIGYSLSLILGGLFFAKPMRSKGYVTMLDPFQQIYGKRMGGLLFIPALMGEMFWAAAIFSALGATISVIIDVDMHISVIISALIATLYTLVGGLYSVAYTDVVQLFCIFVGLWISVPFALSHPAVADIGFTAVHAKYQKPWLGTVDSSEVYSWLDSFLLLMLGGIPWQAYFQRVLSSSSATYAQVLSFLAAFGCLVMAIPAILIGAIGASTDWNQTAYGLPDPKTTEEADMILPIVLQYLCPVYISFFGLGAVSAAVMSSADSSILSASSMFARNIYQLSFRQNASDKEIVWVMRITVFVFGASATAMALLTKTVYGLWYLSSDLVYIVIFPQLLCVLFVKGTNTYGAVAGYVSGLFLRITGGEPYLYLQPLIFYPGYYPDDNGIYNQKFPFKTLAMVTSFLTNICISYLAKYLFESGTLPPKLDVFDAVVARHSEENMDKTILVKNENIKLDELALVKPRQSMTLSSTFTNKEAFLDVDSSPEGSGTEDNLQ

[8] = NIH-3T3 fibroblast cytotoxicity, dose response, cytotoxicity control, cell-based, fluorescence, Alamar Blue, secondary assay (AID 2327); assay type: functional;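 also: NIH-3T3 mouse fibroblasts cultured with fluconazole at 8 µg/mL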
[9] = C. albicans growth with fluconazole, confirmation, fluorescence, retest (AID 2467); assay type: functional, cell-based
[10] = test system: Streptococcus sp. 'group A'; experiment: growth inhibition of control SK(-) GAS strain, dose response, counter-screen for streptokinase expression inhibitor project, luminescence, kanamycin, BacTiterGlo, confirmation (AID 1900); assay type: functional, organism-based
Streptococcus = experiment: Group A Streptococcus viability loss, dose response, counter-screen for streptokinase expression inhibitor project, luminescence, BacTiterGlo (AID 1915); assay type: functional, organism-based;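 also: potency for reduction of bacterial viability or growth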
[11] = molecular target: T5, Short transient receptor potential channel 4 (Mus musculus, UniProt Q9QUQ5); experiment: mouse TRPC4 channel activators, dose response, cell-based, HEK293 TRPC4/mu-opioid, Fluo-4 calcium (AID 434937); assay type: functional
T5 sequence (Q9QUQ5 whole entry): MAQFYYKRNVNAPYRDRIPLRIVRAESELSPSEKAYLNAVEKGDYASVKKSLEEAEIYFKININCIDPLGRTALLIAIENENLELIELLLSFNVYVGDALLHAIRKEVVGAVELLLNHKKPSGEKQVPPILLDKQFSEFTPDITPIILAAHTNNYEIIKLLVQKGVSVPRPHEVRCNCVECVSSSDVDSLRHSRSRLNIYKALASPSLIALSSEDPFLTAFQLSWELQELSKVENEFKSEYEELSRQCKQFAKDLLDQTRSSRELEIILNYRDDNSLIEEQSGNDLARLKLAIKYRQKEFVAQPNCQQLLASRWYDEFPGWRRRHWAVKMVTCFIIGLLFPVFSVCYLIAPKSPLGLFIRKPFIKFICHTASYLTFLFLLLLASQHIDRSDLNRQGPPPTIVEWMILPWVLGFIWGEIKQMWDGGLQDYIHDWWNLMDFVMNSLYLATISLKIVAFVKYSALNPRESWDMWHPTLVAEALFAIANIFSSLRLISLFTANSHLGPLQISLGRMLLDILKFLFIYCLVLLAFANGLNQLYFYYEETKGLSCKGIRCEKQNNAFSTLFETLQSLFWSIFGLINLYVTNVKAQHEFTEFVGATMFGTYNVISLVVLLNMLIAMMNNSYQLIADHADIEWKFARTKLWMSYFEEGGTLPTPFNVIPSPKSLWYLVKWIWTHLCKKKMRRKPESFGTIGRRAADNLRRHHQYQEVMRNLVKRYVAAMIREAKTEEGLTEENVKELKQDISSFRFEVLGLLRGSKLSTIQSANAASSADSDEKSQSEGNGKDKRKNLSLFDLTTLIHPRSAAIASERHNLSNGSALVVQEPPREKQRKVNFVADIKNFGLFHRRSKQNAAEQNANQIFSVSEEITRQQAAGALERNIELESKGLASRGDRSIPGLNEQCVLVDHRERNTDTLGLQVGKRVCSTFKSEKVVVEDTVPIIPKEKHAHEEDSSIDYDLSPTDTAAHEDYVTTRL

Aminopeptidase N = molecular target: T6, Aminopeptidase N (Plasmodium falciparum FcB1/Columbia, UniProt O96935); experiment: P. falciparum M1AAP inhibitors, biochemical, fluorogenic H-Leu-NHMec substrate, 1536-well (AID 1445); set-up: species or system Plasmodium falciparum 3D7, 3D7
T6 sequence (O96935 whole entry): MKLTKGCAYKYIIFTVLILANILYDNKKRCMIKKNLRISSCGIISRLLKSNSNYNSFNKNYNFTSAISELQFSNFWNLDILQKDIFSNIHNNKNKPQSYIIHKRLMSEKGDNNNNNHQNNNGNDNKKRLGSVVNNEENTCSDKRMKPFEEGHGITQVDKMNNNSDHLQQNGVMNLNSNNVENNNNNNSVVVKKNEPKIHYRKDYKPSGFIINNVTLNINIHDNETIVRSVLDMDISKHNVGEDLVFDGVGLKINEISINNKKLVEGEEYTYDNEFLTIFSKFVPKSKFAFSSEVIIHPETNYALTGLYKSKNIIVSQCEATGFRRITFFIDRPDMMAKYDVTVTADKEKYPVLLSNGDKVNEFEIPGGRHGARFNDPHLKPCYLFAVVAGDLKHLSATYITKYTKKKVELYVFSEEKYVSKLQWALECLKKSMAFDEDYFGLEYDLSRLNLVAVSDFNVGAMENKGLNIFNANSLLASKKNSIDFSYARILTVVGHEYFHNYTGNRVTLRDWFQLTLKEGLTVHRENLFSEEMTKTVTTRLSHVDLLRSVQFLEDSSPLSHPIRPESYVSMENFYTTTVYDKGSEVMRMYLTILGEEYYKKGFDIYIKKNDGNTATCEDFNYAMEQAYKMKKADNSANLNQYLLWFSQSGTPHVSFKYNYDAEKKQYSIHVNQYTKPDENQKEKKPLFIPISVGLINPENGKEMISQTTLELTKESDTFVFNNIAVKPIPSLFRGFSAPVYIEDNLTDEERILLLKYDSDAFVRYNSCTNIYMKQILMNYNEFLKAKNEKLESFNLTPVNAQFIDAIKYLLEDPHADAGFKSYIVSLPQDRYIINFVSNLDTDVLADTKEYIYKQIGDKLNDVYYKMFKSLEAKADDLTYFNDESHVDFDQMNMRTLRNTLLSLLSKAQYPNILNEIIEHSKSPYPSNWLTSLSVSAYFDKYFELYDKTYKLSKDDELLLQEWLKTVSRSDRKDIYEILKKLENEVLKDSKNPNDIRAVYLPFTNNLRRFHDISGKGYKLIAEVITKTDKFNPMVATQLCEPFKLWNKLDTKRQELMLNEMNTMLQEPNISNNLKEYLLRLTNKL

[12] = Fluorescence-based cell-based high throughput dose response assay for inhibitors of the interaction of nucleotide-binding oligomerization domain containing 2 (NOD2) and the receptor-interacting serine-threonine kinase 2 (RIPK2).; assay type: functional; settings: Homo sapiens
Paired box protein Pax-8 = Paired box protein Pax-8 (Homo sapiens, UniProt Q06710); experiment: inhibitors of PAX8-driven TPO luciferase reporter, dose response, RMG-I cells, cherry-pick (AID 687027); assay type: functional, cell-based;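 also: luciferase reporter driven by Pax8 target thyroperoxidase promoter measured by SteadyGlo luminescence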
Sequence of Paired box protein Pax-8 (Q06710 whole entry, the tested form may be a part): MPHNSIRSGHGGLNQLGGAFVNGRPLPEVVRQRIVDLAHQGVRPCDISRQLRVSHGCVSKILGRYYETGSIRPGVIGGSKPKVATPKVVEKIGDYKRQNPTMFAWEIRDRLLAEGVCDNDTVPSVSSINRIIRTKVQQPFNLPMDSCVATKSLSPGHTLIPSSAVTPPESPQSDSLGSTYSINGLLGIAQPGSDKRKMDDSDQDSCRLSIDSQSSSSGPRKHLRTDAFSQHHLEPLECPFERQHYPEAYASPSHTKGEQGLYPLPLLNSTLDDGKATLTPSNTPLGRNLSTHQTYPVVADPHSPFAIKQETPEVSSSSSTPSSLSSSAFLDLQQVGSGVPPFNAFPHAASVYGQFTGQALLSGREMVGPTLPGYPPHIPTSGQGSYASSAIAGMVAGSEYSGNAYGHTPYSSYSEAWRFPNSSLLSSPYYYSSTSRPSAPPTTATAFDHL

[13] = ZM109 Env clade C HIV-1 fusion inhibitors, dose response, HeLa effector, CEM target cells, luciferase, cherry-pick (AID 652058); assay type: functional, cell-based
[14] = inhibitors of clade B AD8 Env fusion, dose response, cell-based, cherry-pick (AID 652062); assay type: functional;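 also: luciferase signal from cell-cell fusion driven by HIV-1 clade B AD8 Env; potency is for inhibitors of fusion seen as a drop in luminescence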

Structure (SMILES): COc1cccc(OCC(O)CN2CCN(CCN3C(=O)c4cccc5cccc(c45)C3=O)CC2)c1 (configuration not stated)
EC50 [1]: 1.59 µM (active)
EC50 [2]: > 60 µM (inconclusive)
IC50 [3]: > 20 µM (inactive)
AC50 [4]: 18.2 µM (active)

IC50 [5]: > 66 µM (inactive)
IC50 [6]: > 66 µM (inactive)
Structure (SMILES): Cc1ccc(CN(C)C(=O)COC(=O)CSc2ccc([N+](=O)[O-])cc2)cc1

IC50 [7]: 12.3 µM (active)
Structure (SMILES): O=C(NCCCN1CCOCC1)c1ccc(Cl)c(S(=O)(=O)N2CCCCCC2)c1

Structure (SMILES): O=C1NC(=O)/C(=C/c2cccc3ccccc23)S1
EC50 [8]: > 160 µM (inactive)
EC50 [9]: 0.76 µM (active)
IC50 [7]: 11 µM (active)

Structure (SMILES): Cc1onc(-c2ccccc2)c1C(=O)NC(=S)NNC(=O)c1ccco1
EC50 [10]: 2.79 µM (active)
EC50 (Streptococcus): 10.6 µM (active)
EC50 [11]: 10.6 µM (active)
IC50 [7]: 15.8 µM (active)

IC50 (Aminopeptidase N): 61.7 µM (active)
IC50 [7]: 10.1 µM (active)
Structure (SMILES): Cc1nn2c(N3CCN(C)CC3)c3c(nc2c1-c1ccccc1)CCCC3

IC50 [3]: > 20 µM (inactive)
AC50 [4]: 6.8 µM (active)
Structure (SMILES): CCOC(=O)c1c(C)n(-c2ccc(C)cc2)c2ccc(OCC(O)CNCCCO)cc12 (configuration not stated)

IC50 [5]: > 66 µM (inactive)
IC50 [6]: > 66 µM (inactive)
Structure (SMILES): O=C(CSc1ccc2c(c1)OCCO2)NCCc1ccc(Cl)cc1Cl

Structure (SMILES): C=CC(=O)N1C/C(=C/c2ccc(Cl)cc2)C(=O)/C(=C\c2ccc(Cl)cc2)C1
IC50 [12]: 2.58 µM (active)
AC50 (Paired box protein Pax-8): 1.82 µM (active)

IC50 [5]: > 66 µM (inactive)
IC50 [6]: > 66 µM (inactive)
Structure (SMILES): CC(=O)NCC/N=C(\C)c1sc2ccccc2c1O

Structure (SMILES): CC(=O)C1=C(C)NC(=S)NC1c1ccccc1 (configuration not stated)
AC50 [13]: 27 µM (active)
AC50 [14]: 45 µM (active)

AC50 [4]: 9.25 µM (active)
Structure (SMILES): CNC12CCc3cc(OC)c(OC)c(c31)-c1cc3c(cc1C2)OCO3 (configuration not stated)
